Test results taken from patent US20240390369A1, “METHODS FOR DETERMINING RESPONSIVENESS TO TYK2 INHIBITORS” (Bristol-Myers Squibb Company, priority 2021, published 2024).

System: patients with psoriatic arthritis
Experiment: Phase 2 trial in psoriatic arthritis: ACR20 response at week 16
Format: in vivo, human
Details: for Odds Ratio for ACR20 response / Interaction Term for ACR20 response (ratio of odds ratios): week 16
Protocol: In a double-blind Phase 2 trial, 203 patients with psoriatic arthritis were randomized into three groups: deucravacitinib 6 mg once daily (N=70), deucravacitinib 12 mg once daily (N=67), or placebo (N=66). All subjects had active psoriatic arthritis according to the Classification Criteria for Psoriatic Arthritis (CASPAR); for active disease, these criteria required ≥3 tender joint count, ≥3 swollen joint count, and a C-reactive protein level above 3 mg/L. Other inclusion criteria included the following: presence of at least one plaque psoriasis lesion, and prior treatment failure with a non-biologic disease modifying anti-rheumatic drug, a non-steroidal anti-inflammatory drug, or a steroid. With respect to treatment history, approximately 70% of subjects had not received prior treatment with a biologic and were biologic naïve, while up to 30% of subjects had failed or had been intolerant to one TNF-inhibitor (TNF=Tumor necrosis factor, also known as TNFα). Randomization was stratified by prior TNF-inhibitor use (experienced/naïve) and body weight (<90 kg and ≥90 kg).
Clinical measures included the Psoriasis […] (PASI) score for skin psoriasis, American College of Rheumatology 20 (ACR20) response, Psoriatic Arthritis Disease Activity Score (PASDAS), Health Assessment Questionnaire-Disability Index (HAQ-DI), and Disease Activity Score 28 CRP (DAS28). To evaluate the predictive value of different protein measurements for the clinical response to deucravacitinib, baseline protein concentrations for responders and non-responders, as defined by ACR20 or PASI75 at week 16, were compared for each arm (placebo, 6 mg deucravacitinib once-daily, and 12 mg deucravacitinib once-daily).
Boxplots for baseline protein level by response were generated with a horizontal line indicating the median protein level at baseline. For each treatment arm, a two-sample t-test was performed to test whether mean baseline serum protein level was different in responders versus non-responders. A Wilcoxon rank sum test (Mann-Whitney U test) was also performed to evaluate the difference in median serum protein level between responders and non-responders. Further, barplots of ACR20 and PASI75 response rate at week 16 for each treatment arm were generated for all subjects (protein level high and protein level low subjects, dichotomized according to median baseline level). Line plots of ACR20 and PASI75 response rate over time for each treatment arm were generated for protein level high and protein level low groups. Logistic regression models were also fit to evaluate associations between baseline protein levels and clinical outcome.
For certain analyses described herein, patients were dichotomized by median values (e.g., of the proteins listed above or other measures) into “high” and “low” groups, such that the high group had values above the median and the low group had values less than or equal to the median.
In addition, logistic regression models were fit for response measures ACR20 and PASI75, to generate the odds ratio of each of the deucravacitinib treatment arms versus placebo, in BD2-high and BD2-low groups. The following logistic regression models were used: • For ACR20 response status: ACR20 (Y/N)=treatment arm+BD2 group+treatment arm*BD2 group+TNF-inhibitor use+baseline weight (continuous). • For PASI75 response status: PASI75 (Y/N)=treatment arm+BD2 group+treatment arm*BD2 group+TNF-inhibitor use+baseline weight (continuous). […] FIGS. 26-31 are forest plots summarizing the logistic regression results of these models (for BD2 and other biomarkers described herein); each “N,” for “Placebo” and “Deucrava,” represents the number of responders in that group. […]

Structure (SMILES): [2H]C([2H])([2H])NC(=O)c1nnc(NC(=O)C2CC2)cc1Nc1cccc(-c2ncn(C)n2)c1OC [deucravacitinib, 6-(cyclopropanecarboxamido)-4-((2-methoxy-3-(1-methyl-1H-1,2,4-triazol-3-yl)phenyl)amino)-N-(methyl-d3)pyridazine-3-carboxamide]
- Odds Ratio for ACR20 response (BD2 high (baseline above median 9,265 ng/L), 6 mg QD vs placebo): 4.54
- Odds Ratio for ACR20 response (BD2 high (baseline above median 9,265 ng/L), 12 mg QD vs placebo): 7.33
- Odds Ratio for ACR20 response (BD2 high, treatment arms combined vs placebo): 5.645
- Odds Ratio for ACR20 response (BD2 low, 6 mg QD vs placebo): 1.44
- Odds Ratio for ACR20 response (BD2 low, 12 mg QD vs placebo): 2.15
- Odds Ratio for ACR20 response (BD2 low, treatment arms combined vs placebo): 1.767
- Odds Ratio, ACR20 response status (CRP high, 6 mg QD vs placebo): 2.167
- Odds Ratio, ACR20 response status (CRP high, 12 mg QD vs placebo): 5.140
- Odds Ratio, ACR20 response status (CRP high, treatment arms combined vs placebo): 3.215
- Odds Ratio, ACR20 response status (CRP low, 6 mg QD vs placebo): 2.756
- Odds Ratio, ACR20 response status (CRP low, 12 mg QD vs placebo): 2.676
- Odds Ratio, ACR20 response status (CRP low, treatment arms combined vs placebo): 2.715
- Odds Ratio, ACR20 response status (CRP-high, 6 mg QD vs placebo, adjusted for baseline DAS28): 2.168
- Odds Ratio, ACR20 response status (CRP-high, 12 mg QD vs placebo, adjusted for baseline DAS28): 5.154
- Odds Ratio, ACR20 response status (CRP-low, 6 mg QD vs placebo, adjusted for baseline DAS28): 2.752
- Odds Ratio, ACR20 response status (CRP-low, 12 mg QD vs placebo, adjusted for baseline DAS28): 2.670
- Odds Ratio for ACR20 response (IL-17A high (baseline above median 0.575 ng/L), 6 mg QD vs placebo): 4.30
- Odds Ratio for ACR20 response (IL-17A high (baseline above median 0.575 ng/L), 12 mg QD vs placebo): 5.95
- ACR20 response rate at week 16 (IL-17A high group, 6 mg QD and 12 mg QD vs placebo (FIG. 22)): higher in both 6 mg QD and 12 mg QD treatment arms compared to placebo in the IL-17-high group
- Odds Ratio for ACR20 response (IL-17A high, treatment arms combined vs placebo): 4.990
- Odds Ratio for ACR20 response (IL-17A low, 6 mg QD vs placebo): 1.39
- Odds Ratio for ACR20 response (IL-17A low, 12 mg QD vs placebo): 2.14
- Odds Ratio for ACR20 response (IL-17A low, treatment arms combined vs placebo): 1.723
- ACR20 response rate at week 16 (IL-19-high versus IL-19-low group (FIG. 15)): a much more pronounced treatment effect (indicating a dose response effect of deucravacitinib) was observed in the IL-19-high group than in the IL-19-low group
- Odds Ratio for ACR20 response (IL-19 high (baseline above median 36 ng/L), 6 mg QD vs placebo): 4.68
- Odds Ratio for ACR20 response (IL-19 high (baseline above median 36 ng/L), 12 mg QD vs placebo): 11.44
- Odds Ratio for ACR20 response (IL-19 high, treatment arms combined vs placebo): 6.679
- Odds Ratio for ACR20 response (IL-19 low, 6 mg QD vs placebo): 1.41
- Odds Ratio for ACR20 response (IL-19 low, 12 mg QD vs placebo): 1.56
- Odds Ratio for ACR20 response (IL-19 low, treatment arms combined vs placebo): 1.487
- Interaction Term for ACR20 response (ratio of odds ratios) (adjusted for baseline DAS28, 6 mg QD vs placebo: BD2-high versus BD2-low): 3.06
- Interaction Term for ACR20 response (ratio of odds ratios) (adjusted for baseline DAS28, 6 mg QD vs placebo: IL-17A-high versus IL-17A-low): 3.08
- Interaction Term for ACR20 response (ratio of odds ratios) (adjusted for baseline DAS28, 6 mg QD vs placebo: IL-19-high versus IL-19-low): 3.32
- Interaction Term for ACR20 response (ratio of odds ratios) (adjusted for baseline DAS28, 12 mg QD vs placebo: BD2-high versus BD2-low): 3.42
- Interaction Term for ACR20 response (ratio of odds ratios) (adjusted for baseline DAS28, 12 mg QD vs placebo: IL-17A-high versus IL-17A-low): 2.75
- Odds Ratio for ACR20 response (adjusted for baseline DAS28, All patients, 12 mg QD vs placebo): 3.62
- Odds Ratio for ACR20 response (adjusted for baseline DAS28, BD2-high, 6 mg QD vs placebo): 4.42
- Odds Ratio for ACR20 response (adjusted for baseline DAS28, BD2-low, 6 mg QD vs placebo): 1.44
- Odds Ratio for ACR20 response (adjusted for baseline DAS28, BD2-low, 12 mg QD vs placebo): 2.14
- Odds Ratio for ACR20 response (adjusted for baseline DAS28, IL-17A-high, 6 mg QD vs placebo): 4.27
- Odds Ratio for ACR20 response (adjusted for baseline DAS28, IL-17A-high, 12 mg QD vs placebo): 5.92
- Odds Ratio for ACR20 response (adjusted for baseline DAS28, IL-17A-low, 6 mg QD vs placebo): 1.39
- Odds Ratio for ACR20 response (adjusted for baseline DAS28, IL-19-high, 6 mg QD vs placebo): 4.66
- Odds Ratio for ACR20 response (adjusted for baseline DAS28, IL-19-high, 12 mg QD vs placebo): 11.47
- Odds Ratio for ACR20 response (adjusted for baseline DAS28, IL-19-low, 6 mg QD vs placebo): 1.40
- Odds Ratio for ACR20 response (adjusted for baseline DAS28, IL-19-low, 12 mg QD vs placebo): 1.56
- Interaction Term for ACR20 response (ratio of odds ratios) (treatment arms combined vs placebo: BD2 high versus BD2 low): 3.195
- Interaction Term: treatment arm*CRP group, ACR20 (treatment arms combined vs placebo: CRP high versus CRP low): 1.184
- Interaction Term for ACR20 response (ratio of odds ratios) (treatment arms combined vs placebo: IL-17A high versus IL-17A low): 2.886
- Interaction Term for ACR20 response (ratio of odds ratios) (treatment arms combined vs placebo: IL-19 high versus IL-19 low): 4.491
